The text below walks through data of patent publication US10364263B2, “Cyclic phosphates and cyclic phosphoramidates for the treatment of neurologic disorders” (Retrophin, Inc., priority 2015, dated 2019).

The subject of series [1] is PANK2 silenced human neuroblastoma IMR32 cells (PANK2−/−). The series can be described thus: Coenzyme A assay in PANK2 silenced cells (LC-MS quantification of free CoA). The class given is cell-based. The conditions noted are these: compound added twice (24 h + 24 h), relative to 0.1% DMSO controls. The gist of the method: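 Free intracellular CoA was measured by positive-mode LC-MS/MS of 20% TFA extracts, taking 2 μl per 10^6 cells as intracellular volume. Cells were IMR32 with stable lentiviral PANK2 knockdown, dosed twice 24 h apart (48 h total, 0.1% DMSO). Output is fold increase over vehicle.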

The nature of series [2]: Stability in mouse plasma. The class given is in vitro ADME. The settings on record: mouse, plasma. On the procedure:
(§1) Compounds and positive control samples were dissolved in 100% DMSO at 3 mM. To investigate the stability of the test compounds in plasma, samples were made by diluting test compounds into plasma from the stock solutions to obtain a test compound concentration of 3 μM (0.1% DMSO). Before addition of a test compound, 990 μl of plasma were preincubated at 37° C. for 5 min in eppendorf. After addition of a test compound, 70 μl for each time point were transferred to a 96-deepwell plate, previously warmed at 37° C. in a DUBNOFF water bath. Each compound was tested at five time points, in duplicate (10, 20, 30, 40 and 60 min). At each time point, an aliquot of 50 μl was taken and transferred to a new 96-deepwell plate, and the reaction was stopped with 200 μl of 100% acetonitrile containing 0.1% formic acid and the appropriate internal standard. Then samples were centrifuged at 1100×g for 30 min at +4° C. and supernatants were transferred to a new 96-deepwell plate. Samples were evaporated under N2 and reconstituted in H2O/ACN 0.1% Formic Acid (98:2). Analysis was performed without a calibration curve (Acquity UPLC-Waters; SciexAPI4000). Time 0 was obtained by adding acetonitrile before addition of the test compound.

Series [3] can be described thus: Stability in human plasma. The class given is in vitro ADME. The conditions noted are these: 37° C. On the procedure: as §1
Where [4] appears, read: human, plasma, Diastereoisomer A (upfield shift in 31P NMR), read-out: t1/2, Human Plasma, Diastereoisomer A (converted).
The mark [5] stands for this setting: human, plasma, Diastereoisomer B, read-out: t1/2, Human Plasma, Diastereoisomer B (converted).

Turning to `CC(C)(C)C(=O)OCO[P@@]1(=O)OCC(C)(C)[C@H](C(=O)NCCC(=O)OCC2CCC(=O)N2)O1` (stereo partly drawn) [Compound No. 2-113, (((2S,4R)-5,5-dimethyl-2-oxido-4-((3-oxo-3-((5-oxopyrrolidin-2-yl)methoxy)propyl)carbamoyl)-1,3,2-dioxaphosphinan-2-yl)oxy)methyl pivalate], in series [1], the “PANK2−/− CoA (Fold Increase): fold increase in Coenzyme A (CoA) levels relative to controls” value is listed as 7.93 Fold Increase. Besides, the half-life at 3 µM was less than 9.6 min in series [2] and 0.56 h in series [3] (setting [4]).
In the case of `COC(=O)CCNC(=O)[C@@H]1OP(=O)(N[C@@H](C)C(=O)OC2CCOC2)OCC1(C)C` (stereo partly drawn) [compound 34, methyl 3-((4R)-5,5-dimethyl-2-oxido-2-(((2S)-1-oxo-1-((tetrahydrofuran-3-yl)oxy)propan-2-yl)amino)-1,3,2-dioxaphosphinane-4-carboxamido)propanoate], the “PANK2−/− CoA (Fold Increase): fold increase in Coenzyme A (CoA) levels relative to controls” value in series [1] amounted to 1.3 Fold Increase. Moreover, the half-life at 3 µM in series [3] (Diastereoisomer A (upfield shift in 31P NMR), read-out: t1/2, Human Plasma, Diastereoisomer A (converted)) was more than 1 h. Besides, the “t1/2, Human Plasma, Diastereoisomer B” value in series [3] (Diastereoisomer B, 3 μM) is more than 1 h.
With `COC(=O)CCNC(=O)[C@@H]1OP(=O)(OCCc2cccnc2)OCC1(C)C` (stereo partly drawn) [compound 61, methyl 3-((4R)-5,5-dimethyl-2-oxido-2-(2-(pyridin-3-yl)ethoxy)-1,3,2-dioxaphosphinane-4-carboxamido)propanoate], the “PANK2−/− CoA (Fold Increase): fold increase in Coenzyme A (CoA) levels relative to controls” value in series [1] is 1.93 Fold Increase. In addition, the half-life at 3 µM in series [2] was less than 9.6 min; in series [3] (setting [4]), more than 1 h; in series [3] (setting [5]), more than 1 h. The “t1/2, Mouse Plasma, Diastereoisomer B” value in series [2] (3 µM) was less than 9.6 min.
As to `COC(=O)CCNC(=O)[C@@H]1OP(=O)(OCOC(=O)C(C)C)OCC1(C)C` (stereo partly drawn) [Compound No. 103, (((4R)-4-((3-methoxy-3-oxopropyl)carbamoyl)-5,5-dimethyl-2-oxido-1,3,2-dioxaphosphinan-2-yl)oxy)methyl isobutyrate], in series [1], the “PANK2−/− CoA (Fold Increase): fold increase in Coenzyme A (CoA) levels relative to controls” value turned out to be 105.8 Fold Increase. Besides, the half-life at 3 µM in series [3] (setting [4]) and in series [3] (setting [5]) was less than 0.16 h each time.
`COC(=O)CCNC(=O)[C@@H]1OP(=O)(N[C@@H](Cc2cccnc2)C(=O)OCCc2ccccc2)OCC1(C)C` (stereo partly drawn) [compound 36, phenethyl (2S)-2-(((4R)-4-((3-methoxy-3-oxopropyl)carbamoyl)-5,5-dimethyl-2-oxido-1,3,2-dioxaphosphinan-2-yl)amino)-3-(pyridin-3-yl)propanoate]: in series [1], the “PANK2−/− CoA (Fold Increase): fold increase in Coenzyme A (CoA) levels relative to controls” value stood at 2.44 Fold Increase. In addition, the half-life at 3 µM in series [3] (setting [4]) and in series [3] (setting [5]) was more than 1 h in each case.
Regarding `C[C@H](NP1(=O)OCC(C)(C)[C@H](C(=O)NCCC(=O)O[C@@H]2CCOC2)O1)C(=O)OCCc1ccccc1` (stereo partly drawn) [1-55, phenethyl ((4R)-5,5-dimethyl-2-oxido-4-((3-oxo-3-(((R)-tetrahydrofuran-3-yl)oxy)propyl)carbamoyl)-1,3,2-dioxaphosphinan-2-yl)-L-alaninate], in series [1], the “PANK2−/− CoA (Fold Increase): fold increase in Coenzyme A (CoA) levels relative to controls” value came out at 2.09 Fold Increase. Also, the half-life at 3 µM in series [3] (setting [4]) and in series [3] (setting [5]) was more than 1 h in each case.
`C[C@H](NP1(=O)OCC(C)(C)[C@H](C(=O)NCCC(=O)OCc2ccncc2)O1)C(=O)OCCc1ccccc1` (stereo partly drawn) [compound 38, phenethyl ((4R)-5,5-dimethyl-2-oxido-4-((3-oxo-3-(pyridin-4-ylmethoxy)propyl)carbamoyl)-1,3,2-dioxaphosphinan-2-yl)-L-alaninate]: the “PANK2−/− CoA (Fold Increase): fold increase in Coenzyme A (CoA) levels relative to controls” value in series [1] was found to be 2.76 Fold Increase. In addition, the half-life at 3 µM in series [3] (setting [4]) and in series [3] (setting [5]) was more than 1 h each time.
Consider `COC(=O)CCNC(=O)[C@@H]1O[P@](=O)(N[C@H](C(=O)OCCc2ccccc2)C(C)C)OCC1(C)C` [compound 45, phenethyl ((2S,4R)-4-((3-methoxy-3-oxopropyl)carbamoyl)-5,5-dimethyl-2-oxido-1,3,2-dioxaphosphinan-2-yl)-L-valinate], for which the “PANK2−/− CoA (Fold Increase): fold increase in Coenzyme A (CoA) levels relative to controls” value in series [1] is on record as 1.3 Fold Increase. Further, the half-life at 3 µM in series [3] (setting [4]) is more than 1 h.
For `CC(C)[C@H](N[P@]1(=O)OCC(C)(C)[C@H](C(=O)NCCC(=O)OC(C)(C)C)O1)C(=O)OCCc1ccccc1` [compound 49, phenethyl ((2S,4R)-4-((3-(tert-butoxy)-3-oxopropyl)carbamoyl)-5,5-dimethyl-2-oxido-1,3,2-dioxaphosphinan-2-yl)-L-valinate], in series [1], the “PANK2−/− CoA (Fold Increase): fold increase in Coenzyme A (CoA) levels relative to controls” value was determined as 1.09 Fold Increase. In addition, in series [3] (setting [4]), the half-life at 3 µM was more than 1 h.
For the molecule `COC(=O)CCNC(=O)[C@@H]1O[P@@](=O)(N[C@@H](C)C(=O)OCCc2ccccn2)OCC1(C)C` [compound 35, methyl 3-((2R,4R)-5,5-dimethyl-2-oxido-2-(((S)-1-oxo-1-(2-(pyridin-2-yl)ethoxy)propan-2-yl)amino)-1,3,2-dioxaphosphinane-4-carboxamido)propanoate], the “PANK2−/− CoA (Fold Increase): fold increase in Coenzyme A (CoA) levels relative to controls” value in series [1] was 2.23 Fold Increase. In addition, the half-life at 3 µM in series [3] (setting [4]) is more than 1 h; in series [3] (setting [5]), 0.89 h.
On the same counts, the results for `C[C@H](NP1(=O)OCC(C)(C)[C@H](C(=O)NCCC(=O)OC2Cc3ccccc3C2)O1)C(=O)OCCc1ccccc1` (stereo partly drawn) [1-54, 2,3-dihydro-1H-inden-2-yl 3-((4R)-5,5-dimethyl-2-oxido-2-(((S)-1-oxo-1-phenethoxypropan-2-yl)amino)-1,3,2-dioxaphosphinane-4-carboxamido)propanoate] are 1.13 Fold Increase, less than 0.16 h and less than 0.16 h.
Turning to `C[C@H](NP1(=O)OCC(C)(C)[C@H](C(=O)NCCC(=O)OC[C@H]2CCC(=O)N2)O1)C(=O)OCCc1ccccc1` (stereo partly drawn) [compound 47, ((R)-5-oxopyrrolidin-2-yl)methyl 3-((4R)-5,5-dimethyl-2-oxido-2-(((S)-1-oxo-1-phenethoxypropan-2-yl)amino)-1,3,2-dioxaphosphinane-4-carboxamido)propanoate], the “PANK2−/− CoA (Fold Increase): fold increase in Coenzyme A (CoA) levels relative to controls” value in series [1] was 1.38 Fold Increase. For the same molecule, the half-life at 3 µM in series [3] (setting [4]) was more than 1 h.
In the case of `C[C@H](NP1(=O)OCC(C)(C)[C@H](C(=O)NCCC(=O)OCC2CC2)O1)C(=O)OCCc1ccccc1` (stereo partly drawn) [compound 37, cyclopropylmethyl 3-((4R)-5,5-dimethyl-2-oxido-2-(((S)-1-oxo-1-phenethoxypropan-2-yl)amino)-1,3,2-dioxaphosphinane-4-carboxamido)propanoate], the “PANK2−/− CoA (Fold Increase): fold increase in Coenzyme A (CoA) levels relative to controls” value in series [1] was determined as 1.9 Fold Increase. The half-life at 3 µM in series [3] (setting [4]) and in series [3] (setting [5]) was more than 1 h in each case.
Consider `COC(=O)CCNC(=O)[C@@H]1OP(=O)(N[C@@H](C)C(=O)OCCCc2ccccc2)OCC1(C)C` (stereo in doubt) [compound 46, methyl 3-((2R,4R)-5,5-dimethyl-2-oxido-2-(((S)-1-oxo-1-(3-phenylpropoxy)propan-2-yl)amino)-1,3,2-dioxaphosphinane-4-carboxamido)propanoate], for which the “PANK2−/− CoA (Fold Increase): fold increase in Coenzyme A (CoA) levels relative to controls” value in series [1] was determined as 2.74 Fold Increase. In addition, in series [3] (setting [4]), the half-life at 3 µM is 0.95 h.
On to `CN1CCCC(OC(=O)CCNC(=O)[C@@H]2OP(=O)(OCOC(=O)C(C)(C)C)OCC2(C)C)C1` (stereo partly drawn) [Compound No. 99, (((4R)-5,5-dimethyl-4-((3-((1-methylpiperidin-3-yl)oxy)-3-oxopropyl)carbamoyl)-2-oxido-1,3,2-dioxaphosphinan-2-yl)oxy)methyl pivalate], for which the “PANK2−/− CoA (Fold Increase): fold increase in Coenzyme A (CoA) levels relative to controls” value in series [1] is reported as 10.44 Fold Increase. For the same molecule, in series [3] (setting [4]), the half-life at 3 µM was 0.66 h.
`COC(=O)CCNC(=O)[C@@H]1OP(=O)(N[C@@H](C)C(=O)OCCc2ccccc2)OCC1(C)C` (stereo in doubt) [compound 48, methyl 3-((2R,4R)-5,5-dimethyl-2-oxido-2-(((S)-1-oxo-1-phenethoxypropan-2-yl)amino)-1,3,2-dioxaphosphinane-4-carboxamido)propanoate]: in series [1], the “PANK2−/− CoA (Fold Increase): fold increase in Coenzyme A (CoA) levels relative to controls” value is given as 2.16 Fold Increase. Moreover, the half-life at 3 µM in series [3] (setting [4]) is more than 1 h.
Take `C[C@H](NP1(=O)OCC(C)(C)[C@H](C(=O)NCCC(=O)OCCN2CCCC2)O1)C(=O)OCCc1ccccc1` (stereo partly drawn) [compound 44, phenethyl ((4R)-5,5-dimethyl-2-oxido-4-((3-oxo-3-(2-(pyrrolidin-1-yl)ethoxy)propyl)carbamoyl)-1,3,2-dioxaphosphinan-2-yl)-L-alaninate]: in series [1], the “PANK2−/− CoA (Fold Increase): fold increase in Coenzyme A (CoA) levels relative to controls” value is recorded as 1.62 Fold Increase. Also, the half-life at 3 µM in series [3] (setting [4]) is more than 1 h.
